Literature values, collected in patent US20220082565A1, “THE FGF19-CHOLESTYRAMINE (F-CME) TEST AS A TWO-STAGE METHOD FOR ROUTINE CANCER SCREENING” (UNIVERSITY OF CENTRAL FLORIDA RESEARCH FOUNDATION, INC., priority 2020, published 2022).

Tested on: FGF19 transcripts
Conditions: physiological concentrations of bile acids, explants of ileal mucosa

Row | SMILES | stimulation of human FGF19 transcripts
1 | C[C@H](CCC(=O)O)[C@H]1CC[C@H]2[C@@H]3[C@H](O)C[C@@H]4C[C@H](O)CC[C@]4(C)[C@H]3CC[C@]12C [chenodeoxycholic acid] | approximately 300 fold
2 | CC(CCC(=O)NCC(=O)O)C1CCC2C3C(O)CC4CC(O)CCC4(C)C3CCC12C (centres unmarked) [glycochenodeoxycholic acid] | approximately 300 fold
